Reference: PMC5487681, “Identification of Antifungal H^+-ATPase Inhibitors with Effect on Plasma Membrane Potential” (Antimicrobial Agents and Chemotherapy, 2017)
Converted amounts (≈) assume the structure as drawn. Read-outs that look alike come from different tables or passages of the source. Residues, ends and D or L forms follow the SMILES beside them.

How the values were obtained:
Ca^2+-ATPase (SERCA1a) = Ca^2+-ATPase (SERCA1a) (Oryctolagus cuniculus, UniProt P04191); experiment: ATP hydrolysis assay, SERCA; format: biochemical, rabbit
Method: (§1) Rabbit sarcoplasmic reticulum membranes containing sarcoplasmic endoplasmic reticulum Ca^2+-ATPase (SERCA) were kindly provided by Claus E. Olesen and Jesper V. Møller, Aarhus University, and prepared as described in reference. Porcine kidney Na^+,K^+-ATPase was kindly provided by Natalya Fedosova, Aarhus University, and prepared as described in reference.
(§2) The protein activity levels were determined by measuring the amount of free phosphate produced from the ATP hydrolysis reaction. The assay was performed as described in reference. Each well contained ATPase enzyme, 2 μl of inhibitor (usually in the range of 333 to 0.01 μM) dissolved in dimethyl sulfoxide (DMSO) (Duchefa Biochemie, Haarlem, The Netherlands), and an assay buffer dependent on the enzyme for a final volume of 60 μl. Possible compound precipitation in the assay buffer was monitored using a Nephelostar plate reader measuring turbidity, and the information was taken into account in the IC50 determination. Pma1 assay buffer consisted of 20 mM 3-(N-morpholino)propanesulfonic acid (MOPS)–NaOH, pH 6.5 or 7.0, 8 mM MgSO4, 50 mM KNO3 (a vacuolar ATPase inhibitor), 25 mM sodium azide (a mitochondrial ATPase inhibitor), and 250 μM sodium molybdate (an acid phosphatase inhibitor). SERCA buffer consisted of 9 mM MOPS-NaOH, pH 7, 2.7 mM MgCl2, 90 μM CaCl2, and 72 mM KCl. Na^+,K^+-ATPase buffer consisted of 30 mM MOPS-NaOH, pH 7, 40 mM NaCl, 4 mM MgCl2, and 20 mM KCl. The concentration of protein was adjusted to obtain a signal of the optical density at 860 nm (OD860) of between 0.5 and 1.0 in the untreated samples (for all Pma1 batches, ∼1 to 2 μg/well; for SERCA and Na^+,K^+-ATPase, ∼0.1 to 0.2 μg/well).

[1] = test system: Aspergillus fumigatus ATCC 13073; experiment: microbe, parasite or virus in culture; settings: for MIC: Aspergillus fumigatus
Method: (§3) The following fungal isolates were used: Saccharomyces cerevisiae ATCC 9763, Candida albicans SC5314, Candida parapsilosis ATCC 22019, Candida tropicalis Ct016, Candida glabrata ATCC 90030, Aspergillus fumigatus ATCC 13073, and Aspergillus flavus ATCC MYA-1005. Frozen stocks of yeast isolates in glycerol (final concentration, 20%) were prepared by growing the cells to log phase in YPD medium at 30°C and 150 rpm. Frozen stocks of mold spores were prepared by harvesting spores from 7-day-old potato glucose agar plates in phosphate-buffered saline, 0.1% Tween 80 and aliquoting these spores in the presence of glycerol (final concentration, 20%). The cells were stored at −80°C. The cells or spores were thawed and diluted to a final concentration of 0.5 × 10^5 to 2.5 × 10^5 CFU/ml in sterile Milli-Q H2O. […] The plate was incubated for 20 to 24 h at 34°C (72 h for molds), and the OD490 was measured on a Victor X5 (PerkinElmer) plate reader. Mold growth assay plates were also visually inspected. The MIC was defined as the lowest concentration inhibiting the visual growth of the microorganism.

Candida tropicalis Ct016 = experiment: microbe, parasite or virus in culture; settings: for MIC: Candida tropicalis
Method: as §3

[2] = test system: Candida parapsilosis ATCC 22019; experiment: microbe, parasite or virus in culture; settings: for MIC: Lodderomyces parapsilosis
Method: as §3

[3] = test system: Candida glabrata ATCC 90030; experiment: microbe, parasite or virus in culture; settings: for MIC: Nakaseomyces glabratus
Method: as §3

Candida albicans SC5314 = experiment: microbe, parasite or virus in culture; settings: for MIC: Candida albicans
Method: as §3

Na^+,K^+-ATPase = target: T1, Na^+,K^+-ATPase (Sus scrofa, UniProt P05024); experiment: ATP hydrolysis assay, Na+,K+-ATPase; format: biochemical, porcine
T1 construct: from tissue; host or cells: porcine kidney (gift of Natalya Fedosova, Aarhus University)
Method: as §1, §2

[4] = ATCC13073, 72 h, pH 7, read-out: MIC A. fumigatus
[5] = ATCC13073, read-out: MIC for growth inhibition, A. fumigatus
[6] = CT016, pH 7, read-out: MIC C. tropicalis
[7] = CT016, read-out: MIC for growth inhibition, C. tropicalis
[8] = ATCC22019, pH 7, read-out: MIC C. parapsilosis
[9] = ATCC22019, read-out: MIC for growth inhibition, C. parapsilosis
[10] = ATCC90030, pH 7, read-out: MIC C. glabrata
[11] = ATCC90030, read-out: MIC for growth inhibition, C. glabrata
[12] = SC5314, pH 7, read-out: MIC C. albicans
[13] = SC5314, read-out: Growth inhibition MIC, C. albicans in RPMI
[14] = SC5314, read-out: MIC for growth inhibition, C. albicans
[15] = Table 1, ATP hydrolysis at pH 7, read-out: IC50 Na^+,K^+-ATPase
[16] = Table 2, pH 7, n = 2, rabbit SERCA1a, read-out: IC50 for ATP hydrolysis, SERCA
[17] = Table 2, pH 7, n = 2, porcine kidney, read-out: IC50 for ATP hydrolysis, Na^+,K^+-ATPase
[18] = Table 1, ATP hydrolysis at pH 7.4 (compounds marked b), read-out: IC50 Na^+,K^+-ATPase

Sequence of Ca^2+-ATPase (SERCA1a) (P04191 1-994 isoform P04191-2): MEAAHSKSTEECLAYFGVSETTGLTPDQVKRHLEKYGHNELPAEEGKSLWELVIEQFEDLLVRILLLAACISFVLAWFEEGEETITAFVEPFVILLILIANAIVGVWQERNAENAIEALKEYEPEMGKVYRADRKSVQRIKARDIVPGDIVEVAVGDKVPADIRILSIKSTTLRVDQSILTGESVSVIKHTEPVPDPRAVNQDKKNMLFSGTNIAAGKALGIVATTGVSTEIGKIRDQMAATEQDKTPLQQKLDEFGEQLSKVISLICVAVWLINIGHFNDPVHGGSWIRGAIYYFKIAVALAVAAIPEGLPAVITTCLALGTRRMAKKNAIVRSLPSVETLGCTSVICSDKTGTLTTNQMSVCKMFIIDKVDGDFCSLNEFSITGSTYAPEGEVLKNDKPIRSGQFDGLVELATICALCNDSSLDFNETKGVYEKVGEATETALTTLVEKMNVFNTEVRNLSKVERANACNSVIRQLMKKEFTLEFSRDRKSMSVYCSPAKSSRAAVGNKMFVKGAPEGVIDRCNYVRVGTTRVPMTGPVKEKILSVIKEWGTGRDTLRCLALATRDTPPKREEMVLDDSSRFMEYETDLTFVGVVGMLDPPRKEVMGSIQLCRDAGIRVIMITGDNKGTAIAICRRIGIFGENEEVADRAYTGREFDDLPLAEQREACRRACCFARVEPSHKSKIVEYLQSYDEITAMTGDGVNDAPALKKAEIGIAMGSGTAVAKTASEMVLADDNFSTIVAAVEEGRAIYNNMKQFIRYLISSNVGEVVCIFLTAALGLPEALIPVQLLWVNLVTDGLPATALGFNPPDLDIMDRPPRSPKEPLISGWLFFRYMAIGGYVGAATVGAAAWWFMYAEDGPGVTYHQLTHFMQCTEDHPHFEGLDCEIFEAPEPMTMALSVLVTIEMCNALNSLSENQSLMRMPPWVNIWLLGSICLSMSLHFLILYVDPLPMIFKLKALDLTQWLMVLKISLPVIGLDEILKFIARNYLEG

| SMILES | IC50 (Ca^2+-ATPase (SERCA1a)) | MIC [1, 4] | MIC [1, 5] | MIC (Candida tropicalis Ct016; [6]) | MIC (Candida tropicalis Ct016; [7]) | MIC [2, 8] | MIC [2, 9] | MIC [3, 10] | MIC [3, 11] | MIC (Candida albicans SC5314; [12]) | MIC (Candida albicans SC5314; [13]) | MIC (Candida albicans SC5314; [14]) | IC50 (Na^+,K^+-ATPase; [15]) | IC50 (Ca^2+-ATPase (SERCA1a); [16]) | IC50 (Na^+,K^+-ATPase; [17]) | further results |
| --- | --- | --- | --- | --- | --- | --- | --- | --- | --- | --- | --- | --- | --- | --- | --- | --- |
| CCCCc1nc2sc3c(NCCCN(C)C)ncnc3c2c2c1CCCC2 [Compound 14] | 42 ± 8 µM | 75 µM (≈ 29.8 µg/mL) | 75 µM (≈ 29.8 µg/mL) | 24 µM (≈ 9.54 µg/mL) | 24 µM (≈ 9.54 µg/mL) | 24 µM (≈ 9.54 µg/mL) | 24 µM (≈ 9.54 µg/mL) | 41 µM (≈ 16.3 µg/mL) | 41 µM (≈ 16.3 µg/mL) | 36 µM (≈ 14.3 µg/mL) | 36 µM (≈ 14.3 µg/mL) | 36 µM (≈ 14.3 µg/mL) | 18.4 ± 2.1 µM |  |  |  |
| O=c1c2ccccc2[se]n1-c1ccccc1 [Ebselen, reference compound] |  |  | 24 µM (≈ 6.58 µg/mL) |  | 11 µM (≈ 3.02 µg/mL) |  | 24 µM (≈ 6.58 µg/mL) |  | 7.5 µM (≈ 2.06 µg/mL) |  |  | 7.5 µM (≈ 2.06 µg/mL) |  | 0.12 µM | 0.16 ± 0.01 µM |  |
| O=C1/C(=C/c2ccc(-c3cc(Cl)ccc3Cl)o2)C=C(c2ccccc2)N1c1ccccc1O [Compound 1] | 17.5 ± 4.7 µM | > 150 µM |  | > 150 µM |  | > 150 µM |  | > 150 µM |  | > 150 µM |  |  |  |  |  | IC50 (Na^+,K^+-ATPase; [18]): 13.2 ± 0.91 µM |
| CCCCOc1ccc(C2C(C#N)=C(N)Oc3cc(O)ccc32)cc1 (stereo not shown) [Compound 11] | 15.7 ± 2 µM | > 150 µM |  | > 150 µM |  | > 150 µM |  | > 150 µM |  | > 150 µM |  |  | 30.3 ± 2.4 µM |  |  |  |
| N=C(N)NCCC[C@@H](N)C(=O)N[C@H](CCCNC(=N)N)C(=O)N[C@H](CCCNC(=N)N)C(=O)N[C@H](Cc1ccccc1)C(=O)N[C@H](Cc1c[nH]c2ccccc12)C(=O)N[C@H](Cc1c[nH]c2ccccc12)C(=O)N[C@H](Cc1ccccc1)C(=O)N[C@H](CCCNC(=N)N)C(=O)N[C@H](CCCNC(=N)N)C(=O)N[C@H](CCCNC(=N)N)C(N)=O [BM2, reference compound] (HELM PEPTIDE1{[dR].[dR].[dR].[dF].[dW].[dW].[dF].[dR].[dR].[dR].[am]}$$$$V2.0) | 1.1 µM |  |  |  |  |  |  |  |  |  |  |  |  |  |  | MIC for growth inhibition, A. fumigatus ([1]; ATCC 13073): >150 µM; MIC for growth inhibition, C. tropicalis (Candida tropicalis Ct016; Ct016): 4.7 µM; MIC for growth inhibition, C. parapsilosis ([2]; ATCC 22019): 26 µM; MIC for growth inhibition, C. glabrata ([3]; ATCC 90030): 150 µM; MIC for growth inhibition, C. albicans (Candida albicans SC5314; SC5314): 15 µM; IC50 (Na^+,K^+-ATPase): 10.4 ± 2.7 µM |
| Cc1c(-c2ccccc2)[o+]c2ccccc2c1C#Cc1ccccc1 [Compound 6] |  | > 150 µM |  | > 150 µM |  | > 150 µM |  | > 150 µM |  | > 150 µM |  |  |  |  |  | IC50 (Na^+,K^+-ATPase; [18]): 3.5 ± 3.7 µM |
| [O]=[V]([O-])([O-])[O-] [Vanadate, reference compound] |  |  |  |  |  |  |  |  |  |  |  |  |  | 10.4 ± 2.4 µM | 0.006 ± 0.001 µM | MIC for growth inhibition, A. fumigatus ([1]; Table 3): >750 µM; MIC for growth inhibition, C. tropicalis (Candida tropicalis Ct016; Table 3): >750 µM; MIC for growth inhibition, C. parapsilosis ([2]; Table 3): >750 µM; MIC for growth inhibition, C. glabrata ([3]; Table 3): >750 µM; MIC for growth inhibition, C. albicans (Candida albicans SC5314; Table 3): >750 µM |
| COc1ccc(Cn2c(SCc3cc(C)ccc3C)nc3cc(OC)c(OC)cc3c2=N)cc1 [Compound 12] |  | > 150 µM |  | > 150 µM |  | > 150 µM |  | > 150 µM |  | 12 µM (≈ 5.71 µg/mL) |  |  | 58.7 ± 40.2 µM |  |  |  |
| CCCCc1nc2sc3c(NCCCN(C)C)nc(SC)nc3c2c2c1CCC2 [Compound 15] |  |  | 15 µM (≈ 6.44 µg/mL) |  | 47 µM (≈ 20.2 µg/mL) |  | 15 µM (≈ 6.44 µg/mL) |  | 15 µM (≈ 6.44 µg/mL) |  | 4.8 µM (≈ 2.06 µg/mL) | 4.8 µM (≈ 2.06 µg/mL) |  | 4.5 µM | 4.1 ± 0.6 µM |  |
| CN(C)CCCNc1ncnc2c1sc1nc(-c3ccccc3)c3c(c12)CCC3 [Compound 18] | 69.5 ± 6.9 µM |  | 75 µM (≈ 30.3 µg/mL) |  | 58 µM (≈ 23.4 µg/mL) |  | 24 µM (≈ 9.69 µg/mL) |  | 41 µM (≈ 16.5 µg/mL) |  | 75 µM (≈ 30.3 µg/mL) | 75 µM (≈ 30.3 µg/mL) |  |  | 85.7 ± 26.6 µM |  |
